Test results: PubChem BioAssay (NCI)
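In this assay, cells in 96-well plates receive the compound at five concentrations for 48 hours. Endpoints are linearly interpolated between the surrounding concentrations. TGI denotes the concentration required for complete inhibition of growth.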

Legend:
Assay in all cases: DTP human tumour cell line panel, 48 h
UACC-257 melanoma = tested on: UACC-257 melanoma
HCT-116 colon = tested on: HCT-116 colon
RXF 393 renal = tested on: RXF 393 renal
SF-295 CNS = tested on: SF-295 CNS
HCC-2998 colon = tested on: HCC-2998 colon
SF-539 CNS = tested on: SF-539 CNS
MALME-3M melanoma = tested on: MALME-3M melanoma
OVCAR-4 ovarian = tested on: OVCAR-4 ovarian
A498 renal = tested on: A498 renal
HS 578T breast = tested on: HS 578T breast
HCT-15 colon = tested on: HCT-15 colon

SMILES	TGI (UACC-257 melanoma) [µM]	TGI (HCT-116 colon) [µM]	TGI (RXF 393 renal) [µM]	TGI (SF-295 CNS) [µM]	TGI (HCC-2998 colon) [µM]	TGI (SF-539 CNS) [µM]	TGI (MALME-3M melanoma) [µM]	TGI (OVCAR-4 ovarian) [µM]	TGI (A498 renal) [µM]	TGI (HS 578T breast) [µM]	TGI (HCT-15 colon) [µM]
CSc1nc2c(c(=O)n1C)N=C(c1ccc(Cl)cc1)CC(c1ccccc1)N2 (stereo unspecified)	54.8	> 100	75.4	53.1	53.1	31.7	36.4	23.7	> 100	–	–
Cc1ccc2ccc(=O)oc2c1	> 100	> 100	> 100	> 100	–	> 100	> 100	> 100	> 100	> 100	–
COc1ccc(-c2cc(C3CC3)nc(SCC(=O)O)c2C#N)cc1	> 100	> 100	> 100	> 100	> 100	> 100	–	> 100	> 100	> 100	> 100
COC(=O)c1c(C)ccc2c(O)c3c(cc12)C(=O)c1c2c(cc(O)c1C3=O)C1(C)OC(C)(O2)C(O)C(N(C)C)C1O (stereo unspecified)	3.09	1.84	–	25.1	1.39	12.8	6.42	8.81	7.46	–	–
COC(=O)C1=COC(C)C2C[n+]3ccc4c([nH]c5ccccc54)c3CC12 (stereo unspecified)	> 100	> 100	–	> 100	> 100	> 100	–	> 100	> 100	> 100	> 100
CCn1nc(-c2ccccc2)c2c1N(C)c1ccccc1-n1c(-c3ccccc3)nnc1-2	–	26.3	–	–	29.3	48	–	–	11.2	52.4	23.4
O=C1OC(C2Cc3ccccc3C2=O)c2ccccc21 (stereo unspecified)	> 100	> 100	> 100	> 100	> 100	> 100	> 100	> 100	–	> 100	> 100
Cc1ccc(S(=O)(=O)Nc2nc3ccccc3c(=O)n2C2CCCCC2)cc1	> 100	> 100	> 100	> 100	> 100	> 100	–	> 100	> 100	> 100	> 100
c1ccc2c(c1)nc1n2CCNC1	> 100	> 100	> 100	> 100	> 100	> 100	–	> 100	> 100	> 100	> 100
c1nncn1C12C3C4C5C3C1C5C42 (stereo unspecified)	> 100	> 100	–	> 100	> 100	> 100	–	–	> 100	> 100	> 100
Cc1ccc(S(=O)(=O)N(CC(O)c2ccccc2)c2ccccc2F)cc1 (stereo unspecified)	16.1	26.4	–	37.9	53.2	30.7	34.1	27.4	36	41.1	33
OC12C3C4CC5C(C4[C@@H]1Br)C2[C@@](O)(c1c(F)c(F)c(F)c(F)c1F)C53 (stereo partly specified)	> 100	> 100	94.3	76.8	> 100	> 100	–	> 100	> 100	97.5	> 100
N#CN=C1c2ccccc2C(=NC#N)c2cc(CO)ccc21	> 100	> 100	81.5	> 100	–	> 100	–	> 100	74.4	> 100	> 100
O=C1C=C(N2CCCC2)C(=O)c2c(O)ccc(O)c21	> 10	–	> 10	> 10	> 10	> 10	> 10	–	> 10	> 10	> 10
NC(Cc1ccccc1)=NCC(=O)O	> 100	> 100	> 100	> 100	> 100	–	> 100	> 100	> 100	> 100	> 100
Cc1ccc(C2(N3CCCC3)OC(C)(C)c3cccc4cccc2c34)cc1 (stereo unspecified)	31	38.4	27.1	28	–	32.1	41.4	27.6	30	31.8	32.2
CC(=O)c1cc2c(s1)C(=O)c1scc(C(C)=O)c1C2=O	0.544	1.12	1.54	2.15	3.58	2.44	1.9	0.454	4	–	1.07
CC(=O)N1CC(C)(C)c2c1cc(C)c(O)c2C	> 100	> 100	> 100	> 100	> 100	> 100	–	> 100	> 100	> 100	> 100
O=C(O)CCC(C(=O)O)N1C(=O)c2ccccc2C1=O (stereo unspecified)	> 100	> 100	> 100	> 100	> 100	–	> 100	> 100	> 100	> 100	> 100
O=C(Nc1ccc(Cl)cc1)c1cccc([N+](=O)[O-])c1O	8.13	20	6.67	15.5	14.4	> 74.1	9.97	> 100	7.32	–	> 88.3
O=C1c2cc([N+](=O)[O-])cnc2S(=O)(=O)N1c1ccc(Br)cc1	> 100	> 100	–	> 100	> 100	> 100	> 100	> 100	–	> 100	> 100
Cc1cccc(/C=N/NC(=S)N2CCCCCC2)n1	1.91	0.11	38.9	31.7	> 100	0.549	25.3	–	13.5	> 100	> 36.3
